Experimental data published in patent US9475766B2, “Substituted aromatic sulfur compounds and methods of their use” (Cephalon, Inc., priority 2011, dated 2016).

Assays:
Format in all cases: cell-based
[1] = test system: SU86 pancreatic cancer cell line (Su.86.86); assay: Cell survival and adhesion assay (luciferase), SU86; conditions: 5 hours, SU86 cells overlayed onto human mesothelial cell monolayers, read-out: relative reduction in Luciferase activity, SU86 10 μM
Procedure: (§1) SU86 is a pancreatic cancer cell line. HT29 is a colon cancer cell line. BxPC3 is a pancreatic cell line. A2780 is an ovarian cancer cell line.
(§2) BxPc-3 and Su.86.86 pancreatic and HT-29 colon and A2780 ovarian cancer cell lines were purchased from ATCC and cultured in DMEM supplemented with 10% fetal bovine serum, glutamine, penicillin, and streptomycin. All cells were cultured at 37° C. in a humidified incubator in a 5% CO2 atmosphere. The cancer cell lines were transduced with a retrovirus containing pLuc-puro, a constitutive luciferase reporter and selected in […] media. Transient transfection of a full-length human c-FLIP construct in the vector pcDNA3 was performed as previously described. Scaife et al. Cancer Research 2002, 62: 6870-78.
(§3) Pancreatic cancer cell cultures (BxPc-3 and Su.86.86) and colon cancer (HT-29) and ovarian cancer (A2780) cells that were stably transfected with a firefly luciferase construct were transiently suspended with trypsin-PBS. 10^5 cells were overlayed onto confluent monolayers of human mesothelial cells in 96-well plates while simultaneously adding various concentrations of compounds of the invention or DMSO for 5 hours. The non-adherent cells were carefully washed away from the wells twice with 100 μl/well of blocking buffer (1% BSA in PBS) and twice again with ice-cold PBS. Adherent and surviving cells were detected by luciferase activity in a luminometer as follows. The cells were lysed in 0.1% TritonX-100, 25 mM Gly-Gly (7.8), MgSO4, 4 mM EGTA, 1 mM DTT. The total protein concentration was normalized with lysis buffer. 50 μl of cell lysate was added per well of a 96-well microtiter plate. 50 μl of luciferin substrate (Promega) was added per well and then the light output determined in a luminometer.

[2] = test system: A2780 ovarian cancer cell line; assay: Cell survival and adhesion assay (luciferase), A2780; conditions: 5 hours, A2780 cells overlayed onto human mesothelial cell monolayers, read-out: relative reduction in Luciferase activity, A2780 10 μM
Procedure: as §1, §2, §3

[3] = test system: BxPC3 pancreatic cell line; assay: Cell survival and adhesion assay (luciferase), BxPC3; conditions: BXPC-3, 5 hours, BxPC3 cells overlayed onto human mesothelial cell monolayers, read-out: relative reduction in Luciferase activity, BxPC3 10 μM
Procedure: as §1, §2, §3

Row | Compound | inhibition at 10 µM [1] [%] | inhibition at 10 µM [2] [%] | inhibition at 10 µM [3] [%]
1 | C[C@H](NC(=O)C(C)(C)c1ccc(S(=O)(=O)/C=C/C#N)cc1)c1ccccc1 [Example 16, 2-[4-((E)-2-Cyano-ethenesulfonyl)-phenyl]-N—((S)-1-phenyl-ethyl)-isobutyramide] | 50 to 85 | > 85 | 50 to 85
2 | C[C@@H](NC(=O)C(C)(C)c1ccc(S(=O)(=O)/C=C/C#N)cc1)c1ccccc1 [Example 17, 2-[4-((E)-2-Cyano-ethenesulfonyl)-phenyl]-N—((R)-1-phenyl-ethyl)-isobutyramide] | 50 to 85 | > 85 | 50 to 85
3 | CC(C)(C(=O)NCc1ccc(F)cc1)c1ccc(S(=O)(=O)/C=C/C#N)cc1 [Example 18, 2-[4-((E)-2-Cyano-ethenesulfonyl)-phenyl]-N-(4-fluoro-benzyl)-isobutyramide] | 50 to 85 | > 85 | 50 to 85
4 | C#CCNC(=O)C(C)(C)c1ccc(S(=O)(=O)/C=C/C#N)cc1 [Example 19, 2-[4-((E)-2-Cyano-ethenesulfonyl)-phenyl]-N-prop-2-ynyl-isobutyramide] | 10 to 50 | 10 to 50 | 10 to 50
5 | CC(C)(C(=O)NCc1ccc(-n2cccn2)cc1)c1ccc(S(=O)(=O)/C=C/C#N)cc1 [Example 21, 2-[4-((E)-2-Cyano-ethenesulfonyl)-phenyl]-N-(4-pyrazol-1-yl-benzyl)-isobutyramide] | 50 to 85 | 50 to 85 | 50 to 85
6 | CN(Cc1ccccc1)C(=O)C(C)(C)c1ccc(S(=O)(=O)/C=C/C#N)cc1 [Example 22, N-Benzyl-2-[4-((E)-2-cyano-ethenesulfonyl)-phenyl]-N-methyl-isobutyramide] | 50 to 85 | > 85 | > 85
7 | CC(C)(C(=O)NCCc1ccccc1)c1ccc(S(=O)(=O)/C=C/C#N)cc1 [Example 24, 2-[4-((E)-2-Cyano-ethenesulfonyl)-phenyl]-N-phenethyl-isobutyramide] | 50 to 85 | > 85 | 50 to 85
8 | CC(C)(C)OC(=O)NCCOCCOCCNC(=O)C(C)(C)c1ccc(S(=O)(=O)/C=C/C#N)cc1 [Example 34, {2-[2-(2-{2-[4-((E)-2-Cyano-ethenesulfonyl)-phenyl]-2-methyl-propionylamino}-ethoxy)-ethoxy]-ethyl}-carbamic acid tert-butyl ester] |  |  | < 10
9 | CC(C)(C(=O)NC1CCCCC1)c1cccc(S(=O)(=O)/C=C/C#N)c1 [Example 35, 2-[3-((E)-2-Cyano-ethenesulfonyl)-phenyl]-N-cyclohexyl-isobutyramide] |  |  | 50 to 85
10 | COc1cccc(NC(=O)C(C)(C)c2cccc(S(=O)(=O)/C=C/C#N)c2)c1 [Example 36, 2-[3-((E)-2-Cyano-ethenesulfonyl)-phenyl]-N-(3-methoxy-phenyl)-isobutyramide] |  |  | 50 to 85
11 | CC(C)(C(=O)NCc1ccc(F)cc1)c1cccc(S(=O)(=O)/C=C/C#N)c1 [Example 37, 2-[3-((E)-2-Cyano-ethenesulfonyl)-phenyl]-N-(4-fluoro-benzyl)-isobutyramide] |  |  | 50 to 85
12 | CC(C)(C(=O)NCc1ccc(N)cc1)c1ccc(S(=O)(=O)/C=C/C#N)cc1 [Example 38, N-(4-Amino-benzyl)-2-[4-((E)-2-cyano-ethenesulfonyl)-phenyl]-isobutyramide] |  |  | 10 to 50
13 | CC(C)(C(=O)NCc1cccc(F)c1)c1ccc(S(=O)(=O)/C=C/C#N)cc1 [Example 39, 2-[4-((E)-2-Cyano-ethenesulfonyl)-phenyl]-N-(3-fluoro-benzyl)-isobutyramide] |  |  | 10 to 50
14 | N#C/C=C/S(=O)(=O)c1ccc(C2(C(=O)NCc3ccc(F)cc3)CC2)cc1 [Example 67, 1-[4-((E)-2-Cyano-ethenesulfonyl)-phenyl]-cyclopropanecarboxylic acid 4-fluoro-benzylamide] |  | > 85 | 50 to 85
15 | N#C/C=C/S(=O)(=O)c1ccc(C2(C(=O)NC3CCCCC3)CC2)cc1 [Example 68, 1-[4-((E)-2-Cyano-ethenesulfonyl)-phenyl]-cyclopropanecarboxylic acid cyclohexylamide] |  | > 85 | 50 to 85
16 | N#C/C=C/S(=O)(=O)c1ccc(C2(C(=O)O)CCC2)cc1 [Example 74, 1-[4-((E)-2-Cyano-ethenesulfonyl)-phenyl]-cyclobutanecarboxylic acid] |  | < 10 | < 10
17 | N#C/C=C/S(=O)(=O)c1ccc(C2(C(=O)Nc3ccccc3)CCC2)cc1 [Example 75, 1-[4-((E)-2-Cyano-ethenesulfonyl)-phenyl]-cyclobutanecarboxylic acid phenylamide] |  | 50 to 85 | > 85
18 | N#C/C=C/S(=O)(=O)c1ccc(C2(C(=O)NCc3ccc(Cl)cc3)CCC2)cc1 [Example 76, 1-[4-((E)-2-Cyano-ethenesulfonyl)-phenyl]-cyclobutanecarboxylic acid 4-chloro-benzylamide] |  | > 85 | 50 to 85
19 | N#C/C=C/S(=O)(=O)c1ccc(C2(C(=O)NC3CCCCC3)CCC2)cc1 [Example 77, 1-[4-((E)-2-Cyano-ethenesulfonyl)-phenyl]-cyclobutanecarboxylic acid cyclohexylamide] |  | > 85 | 50 to 85
20 | Cc1ccc(O)c(NC(=O)COc2ccc(S(=O)(=O)/C=C/C#N)cc2C(C)(C)C)c1 [Example 79, 2-[2-tert-Butyl-4-((E)-2-cyano-ethenesulfonyl)-phenoxy]-N-(2-hydroxy-5-methyl-phenyl)-acetamide] |  | > 85 | > 85
21 | Cc1ccc2oc(COc3ccc(S(=O)(=O)/C=C/C#N)cc3C(C)(C)C)nc2c1 [Example 81, (E)-3-[3-tert-Butyl-4-(5-methyl-benzoxazol-2-ylmethoxy)-benzenesulfonyl]-acrylonitrile] |  | > 85 | 50 to 85
22 | N#C/C=C/S(=O)(=O)c1ccc(C2(C(=O)O)CCOCC2)cc1 [Example 82, 4-[4-((E)-2-Cyano-ethenesulfonyl)-phenyl]-tetrahydro-pyran-4-carboxylic acid] |  | < 10 | < 10
23 | N#C/C=C/S(=O)(=O)c1ccc(C2(C(=O)NC3CCCCC3)CCOCC2)cc1 [Example 83, 4-[4-((E)-2-Cyano-ethenesulfonyl)-phenyl]-tetrahydro-pyran-4-carboxylic acid cyclohexylamide] |  | < 10 | 10 to 50
24 | N#C/C=C/S(=O)(=O)c1ccc(C2(C(=O)Nc3ccccc3)CCOCC2)cc1 [Example 84, 4-[4-((E)-2-Cyano-ethenesulfonyl)-phenyl]-tetrahydro-pyran-4-carboxylic acid phenylamide] |  | 10 to 50 | 10 to 50
25 | N#C/C=C/S(=O)(=O)c1ccc(C2(C(=O)NCc3ccc(Cl)cc3)CCOCC2)cc1 [Example 85, 4-[4-((E)-2-Cyano-ethenesulfonyl)-phenyl]-tetrahydro-pyran-4-carboxylic acid 4-chloro-benzylamide] |  | 50 to 85 | 50 to 85
